This is an account of results in patent publication US11278629B2, “Methods for improving anti-CD37 immunoconjugate therapy” (Debiopharm International, S.A., priority 2016, dated 2022).

Assay [1] has as its system lymphoma cell lines. The assay is described as follows: Cell proliferation, MTT assay, fifty-four lymphoma cell lines. It is filed as cell-based. Particulars: 72 hours exposure, read-out: median IC50. An excerpt:
(§1) Fifty-four lymphoma cell lines (ALCL, anaplastic large cell lines (n=5); CLL, chronic lymphocytic leukemia (n=2); ABC-DLBCL, activated B cell like diffuse large B cell (n=7); GCB-DLBCL, germinal center B cell like diffuse large B cell (n=20); MCL, mantle cell lymphoma (n=10); MZL, marginal zone lymphoma (n=6); PMBCL, Primary Mediastinal Large B-Cell Lymphoma (n=1); SMZL, splenic marginal zone lymphoma (n=3)) were exposed to increasing doses of IMGN529 or to the unconjugated cytotoxic payload DM1 for 72 hours. Cell proliferation was measured using the MTT assay. Apoptosis induction was defined by at least a 1.5-fold increase in caspase 3/7 signal activation with respect to controls using the Promega ApoTox-Glo Triplex Assay. CD37 surface expression was assessed by cytofluorimetry. Gene expression profiling (GEP) was done with the Illumina HumanHT-12 Expression BeadChips on untreated cell lines followed by GSEA (NES>|2|, P<0.05, FDR<0.25) and limma t-test (FC>|1.2|; P<0.05; top 200 up and top 200 down).
(In general: Formazan colour is commonly taken as a measure of viable cells.)

Assay [2] relates to lymphoma cell lines. The assay is described as follows: Apoptosis induction, caspase 3/7 activation (Promega ApoTox-Glo Triplex Assay). The assay is classed as cell-based. Particulars: 33/54 cell lines; apoptosis = at least 1.5-fold increase in caspase 3/7 signal vs controls.
Source text: as §1

pIC50: −log10 of the molar value.

For orientation: pIC50 means the IC50 on a negative log10 scale, so that one unit is a factor of ten. Take `COc1cc2cc(c1Cl)N(C)C(=O)C[C@H](OC(=O)[C@H](C)N(C)C(=O)CCS)[C@]1(C)O[C@H]1[C@H](C)C1C[C@@](O)(NC(=O)O1)[C@H](OC)/C=C/C=C(\C)C2` [DM1, N^2′-deacetyl-N^2′-(3-mercapto-1-oxopropyl)-maytansine]: the pIC50 in assay [1] was 10.52.

In the case of “IMGN529: immunoconjugate containing the huCD37-3 antibody, the SMCC linker, and the DM1 maytansinoid”, in assay [2], the “lymphoma cell lines in which apoptosis was induced” value turned out to be 61%.
